Assay results from US20250282820A1, “PEPTIDE COMPLEX HAVING TRKB BINDING ACTIVITY” (PEPTIDREAM INC, priority 2022, published 2025).
*1 amine or outer side, *2 acyl side, *3 side chain or, on linkers, in order; H or OH if unused. Where a SMILES comes first, the peptide text is derived from it. Bridges are numbered along the chain shown (N, C = ends). Roman numbers before positions name the chains, in order. [ ]: non-standard residue; d: D form. CO(CH2CH2O)13CH2CH2CO = O=C(CCOCCOCCOCCOCCOCCOCCOCCOCCOCCOCCOCCOCCOCCC(=O)[*:2])[*:1]; 3Pal = N[C@@H](Cc1cccnc1)C(=O)O

Experiments:
[1] = molecular target: T1, TrkB (CellSensor TrkB-NFAT-bla CHO-K1 Cell) (Homo sapiens, UniProt Q16620); assay: pERK1/2 AlphaLISA assay (phosphorylation of ERK) for TrkB agonist activity; assay type: cell-based; conditions: class = peptide concentration giving 50% or more activity; BDNF maximum signal = 100%, no stimulation = 0%; 15 minutes of stimulation
T1 construct: host or cells: CHO-K1 (CellSensor TrkB-NFAT-bla CHO-K1)
T1 sequence (Q16620 32-822): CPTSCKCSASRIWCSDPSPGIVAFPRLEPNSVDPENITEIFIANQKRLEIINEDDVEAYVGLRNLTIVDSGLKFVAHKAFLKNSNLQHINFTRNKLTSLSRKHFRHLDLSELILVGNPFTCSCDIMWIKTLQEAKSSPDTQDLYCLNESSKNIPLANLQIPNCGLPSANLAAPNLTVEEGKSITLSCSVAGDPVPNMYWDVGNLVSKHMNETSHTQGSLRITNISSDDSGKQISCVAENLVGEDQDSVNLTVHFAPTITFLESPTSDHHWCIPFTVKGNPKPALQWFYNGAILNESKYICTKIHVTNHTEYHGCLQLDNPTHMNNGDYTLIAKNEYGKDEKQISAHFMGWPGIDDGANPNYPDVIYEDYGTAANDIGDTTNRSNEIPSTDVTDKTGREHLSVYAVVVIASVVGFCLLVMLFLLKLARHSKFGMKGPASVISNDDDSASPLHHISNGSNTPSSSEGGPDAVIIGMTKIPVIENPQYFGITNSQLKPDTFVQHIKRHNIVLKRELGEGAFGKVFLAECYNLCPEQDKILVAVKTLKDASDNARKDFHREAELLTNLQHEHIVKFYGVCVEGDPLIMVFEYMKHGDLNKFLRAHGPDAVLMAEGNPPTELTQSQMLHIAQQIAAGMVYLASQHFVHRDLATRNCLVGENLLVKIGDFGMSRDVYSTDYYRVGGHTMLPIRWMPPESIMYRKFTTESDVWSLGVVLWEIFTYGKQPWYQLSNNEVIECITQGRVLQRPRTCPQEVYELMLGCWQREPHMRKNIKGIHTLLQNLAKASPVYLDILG
Procedure, shortened: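 TrkB-NFAT-bla CHO-K1 cells were starved 4 h in 0.1% BSA medium and then stimulated 15 min with peptide or BDNF; p-ERK1/2 (Thr202/Tyr204) in the lysate was read by AlphaLISA SureFire. Activity % was scaled to the BDNF maximum (100%) and no stimulation (0%); A = ≥50% at 1 nM, B = ≥50% at 10 nM; curves were 8 points, 4-fold dilutions from 100 nM.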

[2] = molecular target: T1, TrkB (CellSensor TrkB-NFAT-bla CHO-K1 Cell); assay: NFAT transcriptional reporter assay for TrkB agonist activity; assay type: cell-based; conditions: class = peptide concentration giving 50% or more activity; BDNF maximum signal = 100%, no stimulation = 0%; 5 hours culture
Procedure, shortened: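 CHO-K1 TrkB-NFAT-bla cells, 12,500 per well, treated overnight-seeded with peptide or BDNF for 5 h, then CCF4-AM substrate 2 h in the dark; 460/535 nm emission ratio. Activity scaled to maximal BDNF signal (100%) and unstimulated (0%); grades A/B/C mean ≥50% activity at 1, 10 or 100 nM.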

[3] = molecular target: T2, Recombinant Human TrkA Fc Chimera Protein (Homo sapiens, UniProt P04629); assay: Surface plasmon resonance (SPR), Biacore T200, single cycle kinetics; assay type: binding; conditions: FIG. 4
T2 construct: purchased R&D Systems
T2 sequence (P04629 with tags, fused parts or gaps limits assumed): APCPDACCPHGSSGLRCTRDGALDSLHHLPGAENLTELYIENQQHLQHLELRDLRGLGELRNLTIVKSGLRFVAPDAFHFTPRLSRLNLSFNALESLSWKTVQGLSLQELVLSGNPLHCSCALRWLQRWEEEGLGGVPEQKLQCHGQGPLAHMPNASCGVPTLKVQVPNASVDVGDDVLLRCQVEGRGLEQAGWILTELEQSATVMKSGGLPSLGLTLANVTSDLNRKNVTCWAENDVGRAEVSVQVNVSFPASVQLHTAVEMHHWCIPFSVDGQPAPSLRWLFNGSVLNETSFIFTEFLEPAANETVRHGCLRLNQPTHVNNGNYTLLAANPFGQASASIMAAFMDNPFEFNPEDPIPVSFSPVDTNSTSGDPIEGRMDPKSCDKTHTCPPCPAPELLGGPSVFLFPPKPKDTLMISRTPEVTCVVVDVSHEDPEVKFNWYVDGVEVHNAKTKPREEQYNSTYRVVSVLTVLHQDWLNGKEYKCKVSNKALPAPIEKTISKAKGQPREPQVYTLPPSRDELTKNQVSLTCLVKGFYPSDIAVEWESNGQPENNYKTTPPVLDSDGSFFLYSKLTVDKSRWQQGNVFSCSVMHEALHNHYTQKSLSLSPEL
Protocol: (§1) A CM3 sensor chip (Cytiva) was inserted into a Biacore T200 (Cytiva). Three priming runs were performed using running buffer: HBS-EP+ (Cytiva). The system was then equilibrated at a flow rate of 30 μL/min. After mixing in 50 μL each of a 60 mM EDC solution (Cytiva) and 650 mM NHS solution (Cytiva), the reaction was performed at a flow rate of 10 μL/min for 420 seconds. Then, 135 μL of a 30 ng/μL anti-human IgG (Fc) antibody (Cytiva) solution was prepared by dilution with a 10 mM acetic acid solution (pH 5.0), and the anti-human IgG (Fc) antibody was immobilized on the CM3 sensor chip by reacting it at a flow rate of 10 μL/min for 360 seconds. After immobilization, capping was performed by reacting it with a 1.0M ethanolamine solution (Cytiva) at a flow rate of 10 μL/min for 420 seconds. Each 200 nM Recombinant Human TrkA Fc Chimera Protein, Recombinant Human TrkB Fc Chimera Protein, Recombinant Human TrkC Fc Chimera Protein (R&D Systems) solution was reacted with the immobilized antibody at a flow rate of 10 μL/min for 60 seconds. A liquid prepared by dissolving each peptide at 10 mM in DMSO solution was diluted with running buffer to prepare a peptide-dissolved solution at a final concentration of 10 μM. Subsequently, 50 nM, 25 nM, 12.5 nM, 5 nM, and 2.5 nM peptide solutions were prepared. Using the samples described above, the kinetics of peptide against TrkA, TrkB, and TrkC were obtained by SPR measurements. After reacting a peptide with TrkA, TrkB, and TrkC, regeneration was performed using a reaction with a 3M MgCl solution at 10 μL/min for 180 seconds.
(§2) The kinetic evaluation model was Single Cycle Kinetics, and curve fitting was performed using Biacore T200 Evaluation Software Version 3.0 (Cytiva). The binding of peptides to TrkA, TrkB, and TrkC was evaluated by performing least-squares curve fitting on the obtained sensorgrams and calculating their Kd values (dissociation constants).

[4] = molecular target: T3, Recombinant Human TrkC Fc Chimera Protein (Homo sapiens, UniProt Q16288); assay: as above; assay type: binding; conditions: FIG. 4
T3 construct: purchased R&D Systems
T3 sequence (Q16288 with tags, fused parts or gaps limits assumed): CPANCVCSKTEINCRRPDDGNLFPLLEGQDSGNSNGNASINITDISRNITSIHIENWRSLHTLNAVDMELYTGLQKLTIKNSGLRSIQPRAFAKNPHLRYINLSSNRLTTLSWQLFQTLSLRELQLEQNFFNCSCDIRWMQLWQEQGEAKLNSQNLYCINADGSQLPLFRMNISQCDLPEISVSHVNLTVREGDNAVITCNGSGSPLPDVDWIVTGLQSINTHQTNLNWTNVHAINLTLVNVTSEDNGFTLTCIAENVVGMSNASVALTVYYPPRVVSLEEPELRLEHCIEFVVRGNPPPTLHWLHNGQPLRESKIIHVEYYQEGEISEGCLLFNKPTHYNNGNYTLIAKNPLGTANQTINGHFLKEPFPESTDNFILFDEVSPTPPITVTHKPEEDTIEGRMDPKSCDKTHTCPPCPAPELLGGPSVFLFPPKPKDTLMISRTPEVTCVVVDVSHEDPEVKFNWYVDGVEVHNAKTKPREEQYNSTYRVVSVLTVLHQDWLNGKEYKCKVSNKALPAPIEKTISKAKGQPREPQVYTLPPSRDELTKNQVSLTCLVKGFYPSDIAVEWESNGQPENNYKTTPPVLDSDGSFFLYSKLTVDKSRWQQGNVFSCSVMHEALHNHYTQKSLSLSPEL
Protocol: as §1, §2

Structure (SMILES): CC(C)[C@@H]1NC(=O)[C@H](Cc2cccnc2)NC(=O)[C@H](CCC(=O)O)NC(=O)[C@H](CO)NC(=O)[C@H](Cc2ccc(O)cc2)NC(=O)[C@H]([C@@H](C)O)NC(=O)[C@@H]2CCCN2C(=O)[C@H](Cc2c[nH]c3ccccc23)NC(=O)[C@H](Cc2cccnc2)NC(=O)[C@H](Cc2ccc(O)cc2)NC(=O)[C@@H]2CCCN2C(=O)[C@H](CCC(=O)O)NC(=O)[C@H](Cc2ccccc2)NC(=O)CSC[C@@H](C(=O)NCC(=O)N[C@@H](CCCCNC(=O)CCOCCOCCOCCOCCOCCOCCOCCOCCOCCOCCOCCOCCOCCC(=O)NCCCC[C@H](NC(=O)CNC(=O)[C@@H]2CSCC(=O)N[C@@H](Cc3ccccc3)C(=O)N[C@@H](CCC(=O)O)C(=O)N3CCC[C@H]3C(=O)N[C@@H](Cc3ccc(O)cc3)C(=O)N[C@@H](Cc3cccnc3)C(=O)N[C@@H](Cc3c[nH]c4ccccc34)C(=O)N3CCC[C@H]3C(=O)N[C@@H]([C@@H](C)O)C(=O)N[C@@H](Cc3ccc(O)cc3)C(=O)N[C@@H](CO)C(=O)N[C@@H](CCC(=O)O)C(=O)N[C@@H](Cc3cccnc3)C(=O)N[C@@H](C(C)C)C(=O)N[C@@H](CCC(=O)O)C(=O)N2)C(N)=O)C(N)=O)NC(=O)[C@H](CCC(=O)O)NC1=O [compound 56] (I: {CH2CO}-FEPY[3Pal]WPTYSE[3Pal]VECGK-NH2 / II: {CH2CO}-FEPY[3Pal]WPTYSE[3Pal]VECGK-NH2; linker I:17-II:17 via CO(CH2CH2O)13CH2CH2CO; thioether I:N-I:15, II:N-II:15)
- pERK (aLISA) Assay Results [1]: A (The peptide with 50% or more activity when 1 nM of the peptide was added was evaluated as A)
- NFAT Assay Results [2]: A (The peptide with 50% or more activity when 1 nM of the peptide was added was evaluated as A)
- binding to TrkA [3]: no binding
- binding to TrkC [4]: no binding

Structure (SMILES): CC(C)[C@@H]1NC(=O)[C@H](Cc2cccnc2)NC(=O)[C@H](CCC(=O)O)NC(=O)[C@H](CO)NC(=O)[C@H](Cc2ccc(O)cc2)NC(=O)[C@H]([C@@H](C)O)NC(=O)[C@@H]2CCCN2C(=O)[C@H](Cc2c[nH]c3ccccc23)NC(=O)[C@H](Cc2cccnc2)NC(=O)[C@H](Cc2ccc(O)cc2)NC(=O)[C@@H]2CCCN2C(=O)[C@H](CO)NC(=O)[C@H](Cc2ccccc2)NC(=O)CSC[C@@H](C(=O)NCC(=O)N[C@@H](CCCCNC(=O)CCOCCOCCOCCOCCOCCOCCOCCOCCOCCOCCOCCOCCOCCC(=O)NCCCC[C@H](NC(=O)CNC(=O)[C@@H]2CSCC(=O)N[C@@H](Cc3ccccc3)C(=O)N[C@@H](CO)C(=O)N3CCC[C@H]3C(=O)N[C@@H](Cc3ccc(O)cc3)C(=O)N[C@@H](Cc3cccnc3)C(=O)N[C@@H](Cc3c[nH]c4ccccc34)C(=O)N3CCC[C@H]3C(=O)N[C@@H]([C@@H](C)O)C(=O)N[C@@H](Cc3ccc(O)cc3)C(=O)N[C@@H](CO)C(=O)N[C@@H](CCC(=O)O)C(=O)N[C@@H](Cc3cccnc3)C(=O)N[C@@H](C(C)C)C(=O)N[C@@H](CCC(=O)O)C(=O)N2)C(N)=O)C(N)=O)NC(=O)[C@H](CCC(=O)O)NC1=O [compound 48] (I: {CH2CO}-FSPY[3Pal]WPTYSE[3Pal]VECGK-NH2 / II: {CH2CO}-FSPY[3Pal]WPTYSE[3Pal]VECGK-NH2; linker I:17-II:17 via CO(CH2CH2O)13CH2CH2CO; thioether I:N-I:15, II:N-II:15)
- pERK (aLISA) Assay Results [1]: A (The peptide with 50% or more activity when 1 nM of the peptide was added was evaluated as A)
- NFAT Assay Results [2]: A (The peptide with 50% or more activity when 1 nM of the peptide was added was evaluated as A)
- binding to TrkA [3]: no binding
- binding to TrkC [4]: no binding
